These results are taken from ChEMBL document CHEMBL1148540, “Tetrahydrobenzothiophene inhibitors of hepatitis C virus NS5B polymerase” (Bioorg Med Chem Lett, 2006).

Structures are written as SMILES.

In data set [1] the target is T1, RNA-directed RNA polymerase (Hepacivirus hominis, UniProt O39930). The data set is described as follows: Inhibitory activity against HCV 4a NS5B full length RNA dependent RNA polymerase. Also on record: species or system Hepatitis C virus subtype 4a.
Data set [2] in a line: Permeability across Caco-2 cell membrane. In kind it is ADME, cell-based. To be noted: human, read-out: permeability.
The target of data set [3] is T1, RNA-directed RNA polymerase. The data set is described as follows: Inhibitory activity against delta-21 C-terminally truncated HCV 1b (BB7 isolate) RNA dependent RNA polymerase. On the set-up: species or system Hepatitis C virus subtype 1b.

T1 sequence (O39930 whole entry): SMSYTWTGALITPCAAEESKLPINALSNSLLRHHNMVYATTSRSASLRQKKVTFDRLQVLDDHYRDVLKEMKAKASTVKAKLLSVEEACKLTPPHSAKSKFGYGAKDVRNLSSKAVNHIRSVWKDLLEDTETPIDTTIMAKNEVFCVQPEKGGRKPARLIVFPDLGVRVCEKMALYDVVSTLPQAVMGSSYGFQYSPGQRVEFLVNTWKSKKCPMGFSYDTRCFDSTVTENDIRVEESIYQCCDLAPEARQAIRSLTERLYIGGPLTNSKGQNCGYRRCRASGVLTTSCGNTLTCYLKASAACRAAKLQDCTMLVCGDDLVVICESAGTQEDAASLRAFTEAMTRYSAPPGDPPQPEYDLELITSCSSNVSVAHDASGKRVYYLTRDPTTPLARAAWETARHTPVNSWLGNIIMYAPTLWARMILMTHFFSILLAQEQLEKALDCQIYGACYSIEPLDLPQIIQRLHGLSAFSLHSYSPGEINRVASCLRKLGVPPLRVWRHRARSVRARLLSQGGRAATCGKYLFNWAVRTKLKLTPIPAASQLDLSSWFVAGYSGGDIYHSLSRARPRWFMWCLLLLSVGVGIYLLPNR

In data set [1], `CCOC(=O)c1c(NC(=O)NS(=O)(=O)c2ccc(F)cc2)sc2c1CCCC2` gave an IC50 of 1700 nM.

As for `CCOC(=O)c1c(NC(=O)NS(=O)(=O)c2ccccc2OC(F)(F)F)sc2c1CCC(C)(C)C2`, the IC50 was 150 nM in data set [1] and 400 nM in data set [3]. In addition, in data set [2], the Papp is more than 3 ×10⁻⁶ cm/s.

In the case of `CCOC(=O)c1c(NC(=O)NS(=O)(=O)c2ccccc2C(F)(F)F)sc2c1CCC(C)(C)C2`, the IC50 is 50 nM in data set [1] and 200 nM in data set [3]. Also, the Papp in data set [2] is more than 3 ×10⁻⁶ cm/s.

On to `CCOC(=O)c1c(NC(=O)NS(=O)(=O)N2CCc3ccccc32)sc2c1CCC(C)(C)C2`, for which the IC50 in data set [1] was 200 nM; in data set [3], 260 nM.

`CCOC(=O)c1c(NC(=O)NS(=O)(=O)c2ccc(C)cc2)sc2c1CCCC2`: in data set [1], the IC50 worked out at 1000 nM.

Consider `CCOC(=O)c1c(NC(=O)NS(=O)(=O)c2ccc(F)cc2)sc2c1CCC(C)(C)C2`, for which the values for the IC50 in data set [1] and in data set [3] were 60 nM and 500 nM, respectively. The Papp in data set [2] is more than 3 ×10⁻⁶ cm/s.

With `CCOC(=O)c1c(NC(=O)NS(=O)(=O)N2CCCCCC2)sc2c1CCC(C)(C)C2`, the 50% inhibitory concentration (IC50) in data set [1] was determined as 500 nM; in data set [3], 1100 nM.

Take `CCOC(=O)c1c(NC(=O)NS(=O)(=O)c2ccccc2)sc2c1CCCC2`: the IC50 in data set [1] amounted to 700 nM.

In data set [1], `CCOC(=O)c1c(NC(=O)NS(C)(=O)=O)sc2c1CCCC2` returned an IC50 of 3800 nM.

With `CCOC(=O)c1c(NC(=O)NS(=O)(=O)c2ccc(C#N)cc2)sc2c1CCC(C)(C)C2`, the IC50 worked out at 90 nM in data set [1] and 400 nM in data set [3]. Also, in data set [2], the Papp was more than 3 ×10⁻⁶ cm/s.

Consider `CCOC(=O)c1c(NC(=O)NS(=O)(=O)N2CCN(C)CC2)sc2c1CCC(C)(C)C2`, for which the figures for the IC50 in data set [1] and in data set [3] were 400 nM and 2000 nM, respectively.

For `CCOC(=O)c1c(NC(=O)NS(=O)(=O)N2CCOCC2)sc2c1CCC(C)(C)C2`, the IC50 in data set [1] came out at 300 nM; in data set [3], 2500 nM.

In data set [1], `CCOC(=O)c1c(NC(=O)NS(=O)(=O)c2cccc(C)c2)sc2c1CCCC2` came in with an IC50 of 900 nM.

Take `CCOC(=O)c1c(NC(=O)NS(=O)(=O)c2ccccn2)sc2c1CCC(C)(C)C2`: the results for the IC50 in data set [1] and in data set [3] were 40 nM and 150 nM, respectively. The Papp in data set [2] was more than 3 ×10⁻⁶ cm/s.

Regarding `CCOC(=O)c1c(NC(=O)NS(=O)(=O)N2CCN(C(C)=O)CC2)sc2c1CCC(C)(C)C2`, the 50% inhibitory concentration (IC50) in data set [1] stood at 300 nM; in data set [3], 600 nM.

In the case of `CCOC(=O)c1c(NC(=O)NS(=O)(=O)c2ccnn2C)sc2c1CCC(C)(C)C2`, the IC50 was 50 nM in data set [1] and 260 nM in data set [3]. The Papp in data set [2] is more than 3 ×10⁻⁶ cm/s.

For `CCOC(=O)c1c(NC(=O)NS(=O)(=O)c2ncccn2)sc2c1CCC(C)(C)C2`, the IC50 was determined as 50 nM in data set [1] and 300 nM in data set [3]. In data set [2], the Papp is more than 3 ×10⁻⁶ cm/s.

For `CCOC(=O)c1c(NC(=O)NS(=O)(=O)c2ccc(C)cc2)sc2c1CCC(C)C2` (centres undefined), 200 nM corresponded to half-maximal inhibition in data set [1] (IC50).

`CCOC(=O)c1c(NC(=O)NS(=O)(=O)c2ccc(Cl)cc2)sc2c1CCCC2` showed an IC50 in data set [1] of 1000 nM.

With `CCOC(=O)c1c(NC(=O)NS(=O)(=O)c2ccc([N+](=O)[O-])cc2)sc2c1CCCC2`, half-maximal inhibition in data set [1] (IC50) was put at 2800 nM.

As to `CCOC(=O)c1c(NC(=O)NS(=O)(=O)N2CCCC2)sc2c1CCC(C)(C)C2`, the results for the IC50 in data set [1] and in data set [3] were 200 nM and 400 nM, respectively.

With `CCOC(=O)c1c(NC(=O)NS(=O)(=O)c2ccc(C)cn2)sc2c1CCC(C)(C)C2`, the IC50 in data set [1] is 50 nM; in data set [3] it was 200 nM. Further, the Papp in data set [2] is more than 3 ×10⁻⁶ cm/s.

In data set [1], `CCOC(=O)c1c(NC(=O)NS(=O)(=O)c2ccccc2C)sc2c1CCCC2` displayed an IC50 of 900 nM.

With `CCOC(=O)c1c(NC(=O)NS(=O)(=O)N2CCCCC2)sc2c1CCC(C)(C)C2`, the IC50 was 200 nM in data set [1] and 1000 nM in data set [3].

`CCOC(=O)c1c(NC(=O)NS(=O)(=O)c2cccc3ccccc23)sc2c1CCCC2` gave an IC50 in data set [1] of 700 nM.

`CCCCS(=O)(=O)NC(=O)Nc1sc2c(c1C(=O)OCC)CCCC2` registered an IC50 in data set [1] of 4900 nM.

Consider `CCOC(=O)c1c(NC(=O)NS(=O)(=O)c2ccccc2)sc2c1CCC(C)(C)C2`, for which the results for the IC50 in data set [1] and in data set [3] were 90 nM and 200 nM, respectively. In addition, in data set [2], the Papp is more than 3 ×10⁻⁶ cm/s.

Consider `CCOC(=O)c1c(NC(=O)NS(=O)(=O)c2ccc(C)cc2)sc2c1CC(C)CC2` (centres undefined), for which it took 500 nM to reach half-maximal inhibition in data set [1] (IC50).

As for `CCOC(=O)c1c(NC(=O)NS(=O)(=O)c2ccc(C)cc2)sc2c1CCC(C)(C)C2`, the IC50 in data set [1] turned out to be 90 nM; in data set [3], 400 nM. In data set [2], the Papp is more than 3 ×10⁻⁶ cm/s.

`CCOC(=O)c1c(NC(=O)NS(=O)(=O)c2ccc(C)cc2)sc2c1C(C)CCC2` (centres undefined) came in with an IC50 in data set [1] of 2000 nM.

In the case of `CCOC(=O)c1c(NC(=O)c2nccnc2C(=O)O)sc2c1CCCC2`, the IC50 in data set [1] came to 4000 nM.

With `CCOC(=O)c1c(NC(=O)NS(=O)(=O)c2nccn2C)sc2c1CCC(C)(C)C2`, the IC50 in data set [1] worked out at 80 nM; in data set [3], 150 nM. The Papp in data set [2] is more than 3 ×10⁻⁶ cm/s.

As for `CCOC(=O)c1c(NC(=O)NS(=O)(=O)N2CCc3ccccc3C2)sc2c1CCC(C)(C)C2`, the results for the IC50 in data set [1] and in data set [3] were 100 nM and 600 nM, respectively.

In data set [1], `CCOC(=O)c1c(NC(=O)NS(=O)(=O)c2cccc(OC)c2)sc2c1CCCC2` came in with an IC50 of 1200 nM.
